Tests used:
[1] = Solubility of the compound in solvents (amount of solvent required to dissolve 10 mg); type: physicochemical
Procedure: Moreover, the solubility of the compound (1)-1 in the solvent was confirmed. Specifically, the amount of the solvent required to dissolve 10 mg of the compound (1)-1 was confirmed for each solvent. The amount of the solvent required was from 1 mL to 5 mL when tetrahydrofuran or acetone was used, and 1 mL or less when cyclopentanone, methanol or dimethyl sulfoxide was used.

[2] = Behavior of compound in methanol under light irradiation with wavelength of 313 nm or 365 nm (absorbance; Test Examples 1, 2, 8, 9); type: physicochemical; conditions: 2.0×10^−5 mol/L; for molar absorption coefficient ε313: 313 nm; for molar absorption coefficient ε365: 365 nm
Procedure: The compound (1)-1 obtained above was dissolved in methanol so as to have a concentration of 2.0×10^−5 mol/L. Then, using a mercury xenon lamp, the illuminance was set to 5 mW/cm^2, the exposure doses were set to 0, 10, 30, 60 and 100 mJ/cm^2, and the obtained methanol solution was irradiated with light having a wavelength of 313 nm. Then, the absorbance of the compound (1)-1 was measured.
The compound (1)-1 obtained above was dissolved in methanol so as to have a concentration of 2.0×10^−5 mol/L. Then, using an LED lamp, the illuminance was set to 10 mW/cm^2, the exposure doses were set to 0, 10, 30, 60 and 100 mJ/cm^2, and the obtained methanol solution was irradiated with light having a wavelength of 365 nm. Then, the absorbance of the compound (1)-1 was measured.
The compound (1)-2 obtained above was dissolved in methanol so as to have a concentration of 2.0×10^−5 mol/L. Then, using a mercury xenon lamp, the illuminance was set to 10 mW/cm^2, the exposure doses were set to 0, 30, 100, 200 and 300 mJ/cm^2, and the obtained methanol solution was irradiated with light having a wavelength of 313 nm. Then, the absorbance of the compound (1)-2 was measured.
The compound (1)-2 obtained above was dissolved in methanol so as to have a concentration of 2.0×10^−5 mol/L. Then, using an LED lamp, the illuminance was set to 10 mW/cm^2, the exposure doses were set to 0, 30, 100, 200 and 300 mJ/cm^2, and the obtained methanol solution was irradiated with light having a wavelength of 365 nm. Then, the absorbance of the compound (1)-2 was measured.

[3] = Production of reaction product using photoreactive composition including compound (2) (Test Example 12); conditions: 365 nm, up to 10000 mJ/cm^2, post-bake 160° C. 20 minutes
Procedure: Polyglycidylmethyl acrylate (PGMA, 0.1 g, molecular weight; 22000) showing the structure above, the compound (2) (0.005 g) and tetrahydrofuran (1 g) were blended and stirred at 25° C. for 1 minute to obtain a photoreactive composition.
The photoreactive compositions obtained above was applied onto a silicon wafer by a spin coating method under the conditions of 1500 rpm and 30 seconds. Next, after heating (pre-baking) this coating film (photoreactive composition layer) at 100° C. for 1 minutes, using a Hg—Xe lamp, the coating film was irradiated with light having a wavelength of 365 nm with an illuminance of 50 mW/cm^2 and the exposure doses of 0 mJ/cm^2 to 10000 mJ/cm^2. After light irradiation, the coating film was heated (post-baked) 160° C. for 20 minutes. The coating film after heated was developed with tetrahydrofuran for 30 seconds, and then the ratio of the thickness of the coating film after development to the coating film before light irradiation was measured.

| amount of the solvent required to dissolve 10 mg ([1]; cyclopentanone) [mL] | amount of the solvent required to dissolve 10 mg ([1]; dimethyl sulfoxide) [mL] | amount of the solvent required to dissolve 10 mg ([1]; methanol) [mL] | molar absorption coefficient ε313 [2] [L/mol/cm] | molar absorption coefficient ε365 [2] [L/mol/cm] | production of an insolubilized reaction product [3] | SMILES |
| --- | --- | --- | --- | --- | --- | --- |
| ≤ 1 | ≤ 1 | ≤ 1 | 23000 | 6900 | – | O=C(/C=C/c1ccccc1O)Nc1ccncc1 [compound (1)-1] |
| – | – | – | – | – | could not be produced | O=C(/C=C/c1ccccc1O)NC1CCCCC1 [compound (2)] |
| – | – | – | 13000 | 3200 | – | CN(C(=O)/C=C/c1ccccc1O)c1ccncc1 [compound (1)-2] |

Reference: patent US12399427B2, “Photobase generator, compound, photoreactive composition and reaction product” (Tokyo University of Science Foundation, priority 2019, dated 2025)
